Holding throughout (assay type): functional
Test [1] has as its system Bacteroides fragilis. Description: Antimicrobial activity against Bacteroides fragilis MN5 after 24 hrs by agar dilution method. The settings on record: MN5, 24 h. (In agar dilution, organisms are placed on agar that contains the substance at set levels.)
Test [2] has as its system Bacteroides fragilis. As to the kind of experiment: Antimicrobial activity against Bacteroides fragilis MN36 after 24 hrs by agar dilution method. The note with it: MN36, 24 h.
Test [3] relates to Bacteroides fragilis. Description: Antimicrobial activity against Bacteroides fragilis MN35 after 24 hrs by agar dilution method. The settings on record: MN35, 24 h.
Test [4] concerns Bacteroides fragilis. Description: Antimicrobial activity against Bacteroides fragilis MN41 after 24 hrs by agar dilution method. The settings on record: MN41, 24 h.
In test [5] the test system is Bacteroides fragilis. Description: Antimicrobial activity against Bacteroides fragilis MN32 imipenemase activity after 24 hrs by agar dilution method. The settings on record: MN32, 24 h.
The test system of test [6] is Bacteroides fragilis. Description: Antimicrobial activity against Bacteroides fragilis MN4a.
For test [7], the system named is Bacteroides fragilis. Description: Antimicrobial activity against Bacteroides fragilis MN11 expressing imipenemase activity after 24 hrs by agar dilution method. The note with it: MN11, 24 h.

Values after ≈ are worked out from the molar mass of the structure shown.

As to `C[C@@H](O)[C@H]1C(=O)N2C(C(=O)O)=C(SCCNC=N)C[C@H]12` [IMIPENEM ANHYDROUS], the MIC in test [1] came out at 0.25 µg/mL (≈ 0.835 µM); in test [2] it was 0.25 µg/mL (≈ 0.835 µM); in test [3], 0.25 µg/mL (≈ 0.835 µM); in test [4], 0.25 µg/mL (≈ 0.835 µM); in test [5], 128 µg/mL (≈ 428 µM); in test [6], 0.5 µg/mL (≈ 1.67 µM). In test [7], the MIC was found to be 256 µg/mL (≈ 855 µM).

For orientation: MIC means the lowest concentration found to suppress growth. Low values mean inhibition by little substance, high ones a need for much substance.

For the origin of these results see ChEMBL document CHEMBL1649482, “Gene Context and DNA rearrangements in the carbapenemase locus of division II strains of Bacteroides fragilis” (2009).
